From BindingDB's records for doi:10.1016/j.bmc.2007.01.021 (Polish Academy of Sciences, 2007) come the findings set out here.

The target in the assay is Thymidylate synthase (Mus musculus, UniProt P07607). In words: Inhibition of mouse thymidylate synthase in mouse L1210 cells.
Thymidylate synthase, sequence (P07607 whole entry): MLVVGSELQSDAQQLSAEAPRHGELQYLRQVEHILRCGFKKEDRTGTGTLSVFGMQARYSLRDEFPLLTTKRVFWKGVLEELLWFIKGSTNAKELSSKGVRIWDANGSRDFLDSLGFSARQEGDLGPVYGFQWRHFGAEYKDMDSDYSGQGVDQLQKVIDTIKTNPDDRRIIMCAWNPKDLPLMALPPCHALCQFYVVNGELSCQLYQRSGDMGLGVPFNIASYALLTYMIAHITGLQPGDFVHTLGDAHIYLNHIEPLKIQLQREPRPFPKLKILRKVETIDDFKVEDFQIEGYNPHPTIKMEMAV

For the compound `CCCc1cn([C@H]2C[C@H](O)[C@@H](OP(=O)(O)O)O2)c(=O)[nH]c1=O`, the Ki (commonly the dissociation constant of the complex between target and ligand, obtained from inhibition or displacement) was 8.12 nM.

In turn, `CCc1cn([C@H]2C[C@H](O)[C@@H](OP(=O)(O)O)O2)c(=O)[nH]c1=O` returned a Ki of 28.1 nM. Next, `O=c1[nH]c(=O)n([C@H]2C[C@H](O)[C@@H](OP(=O)(O)O)O2)cc1I`: 128 nM; `O=c1[nH]c(=O)n([C@H]2C[C@H](O)[C@@H](OP(=O)(O)O)O2)cc1[N+](=O)[O-]`: 2.57 nM; `O=c1[nH]c(=O)n([C@H]2C[C@H](O)[C@@H](OP(=O)(O)O)O2)cc1Br`: 660 nM. Next, `O=c1[nH]c(=O)n([C@H]2C[C@H](O)[C@@H](OP(=O)(O)O)O2)cc1CO`: 269 nM; `Cc1cn([C@H]2C[C@H](O)[C@@H](OP(=O)(O)O)O2)c(=O)[nH]c1=O`: 138 nM; `O=c1[nH]c(=O)n([C@H]2C[C@H](O)[C@@H](OP(=O)(O)O)O2)cc1O`: 309 nM.
